Assay results: ChEMBL document CHEMBL1201862, “PubChem BioAssay data set” (2004)
Active and inactive are the calls of the source.

Tests used:
BJ [1] = assay: cells; type: functional, cell-based; details: Homo sapiens
BJ [2] = assay: BJ-TERT fibroblast viability loss – cell-based, RAS-independent, luminescence, dose response (AID 1933); type: functional; details: Homo sapiens
Beta-galactosidase = Beta-galactosidase (Escherichia coli, UniProt Q8VNN2); assay: PubChem AID 485352; type: functional
[3] = DRD fibroblast viability loss – cell-based, non-viral oncogenic, luminescence, dose response (AID 1934); type: functional; details: Homo sapiens
[4] = non-specific 3'UTR reporter inhibition in Clone20-Shn3RL – cell-based, Renilla luciferase, cherry-picked, counter-screen for Shn3 inhibitor project, dose response (AID 624133); type: functional
[5] = target: T1, Type-1 angiotensin II receptor (Homo sapiens, UniProt P30556); assay: antagonism of angiotensin II type 1 receptor – cell-based, uHTS hits, selectivity assay for APJ receptor antagonist project, dose response (AID 463214); type: functional;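 also: antagonist potency against angiotensin II stimulated AT1 response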
T1 sequence (P30556 whole entry): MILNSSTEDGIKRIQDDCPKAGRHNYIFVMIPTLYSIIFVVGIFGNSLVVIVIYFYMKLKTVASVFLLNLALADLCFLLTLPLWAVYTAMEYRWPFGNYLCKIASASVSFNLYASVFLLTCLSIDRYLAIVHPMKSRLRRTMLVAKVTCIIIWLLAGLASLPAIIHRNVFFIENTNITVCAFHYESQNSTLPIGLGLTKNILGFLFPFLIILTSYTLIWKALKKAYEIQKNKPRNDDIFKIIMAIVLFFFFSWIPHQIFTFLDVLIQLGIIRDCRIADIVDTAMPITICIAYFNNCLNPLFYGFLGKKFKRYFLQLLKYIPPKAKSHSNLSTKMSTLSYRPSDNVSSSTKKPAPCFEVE

BJ [6] = assay: BJ-TERT-LT-ST fibroblast viability loss – cell-based, RAS-independent, luminescence, dose response (AID 1935); type: functional; details: Homo sapiens;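 also: BJ fibroblasts immortalized with TERT plus LT and ST oncogenes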
[7] = Luminescence Cell-Based Dose Retest to Confirm Inhibitors of Cancer Stem Cells. [Related pubchem assays (depositor defined):AID2717, AID2721]; type: functional; details: Homo sapiens
[8] = reduction of Shn3 3'UTR-driven luciferase in osteoblasts – cell-based, Clone20 osteoblasts, firefly luciferase, cherry-picked, dose response (AID 624132); type: functional;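 also: firefly luciferase luminescence from reporter carrying the Shn3 3'UTR in osteoblasts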
Vero [9] = assay: cells; type: functional, cell-based; details: Chlorocebus sabaeus
[10] = loss of viability in HepG2 cells – cell-based, CellTiter-Glo, cherry-picked, cytotoxicity control for Shn3 inhibitor project, dose response (AID 624134); type: functional
Vero [11] = assay: cells; type: functional; details: Chlorocebus sabaeus
BJ [12] = assay: growth inhibition of engineered Ras-driven BJ cells – cell-based, alamar blue fluorescence, cherrypicked samples, dose response (AID 2631); type: functional; details: Homo sapiens;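 also: confirmatory dose-response assay in RAS-dependent BJ fibroblasts engineered with TERT, LT and ST, with cytotoxicity read by fluorescence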
[13] = target: T2, Ubiquitin-conjugating enzyme E2 N (Homo sapiens, UniProt P61088); type: functional
T2 sequence (P61088 whole entry): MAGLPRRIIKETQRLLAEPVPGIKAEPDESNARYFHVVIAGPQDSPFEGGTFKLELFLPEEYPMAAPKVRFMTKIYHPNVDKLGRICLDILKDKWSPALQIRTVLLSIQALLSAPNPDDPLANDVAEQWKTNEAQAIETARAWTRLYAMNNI

Nonstructural protein 1 = Nonstructural protein 1 (Influenza A virus, UniProt Q194T2); type: functional, Influenza A virus (A/California/07/2009(H1N1))
Bcl-2-related protein A1 = target: T3, Bcl-2-related protein A1 (Mus musculus, UniProt Q07440); type: functional;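 also: confirmatory dose–response counterscreen on Bfl-1, used to check hits from a UBC13 polyubiquitin inhibitor campaign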
T3 sequence (Q07440 whole entry): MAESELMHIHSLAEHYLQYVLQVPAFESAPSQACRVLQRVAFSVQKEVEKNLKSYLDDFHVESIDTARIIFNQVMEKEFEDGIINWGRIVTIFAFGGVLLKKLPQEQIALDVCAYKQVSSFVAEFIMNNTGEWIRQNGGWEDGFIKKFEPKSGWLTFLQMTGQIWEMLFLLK

[14] = target: T2, Ubiquitin-conjugating enzyme E2 N; type: functional; remark: listed apart in the source
[15] = target: T4, Rac GTPase-activating protein 1 (Homo sapiens, UniProt Q9H0H5); assay: blockers of MgcRacGAP-driven Rac1 GTP hydrolysis – biochemical, ADP Hunter fluorescence, primary and confirmatory, confirmation (AID 624330); type: functional
T4 sequence (Q9H0H5 whole entry): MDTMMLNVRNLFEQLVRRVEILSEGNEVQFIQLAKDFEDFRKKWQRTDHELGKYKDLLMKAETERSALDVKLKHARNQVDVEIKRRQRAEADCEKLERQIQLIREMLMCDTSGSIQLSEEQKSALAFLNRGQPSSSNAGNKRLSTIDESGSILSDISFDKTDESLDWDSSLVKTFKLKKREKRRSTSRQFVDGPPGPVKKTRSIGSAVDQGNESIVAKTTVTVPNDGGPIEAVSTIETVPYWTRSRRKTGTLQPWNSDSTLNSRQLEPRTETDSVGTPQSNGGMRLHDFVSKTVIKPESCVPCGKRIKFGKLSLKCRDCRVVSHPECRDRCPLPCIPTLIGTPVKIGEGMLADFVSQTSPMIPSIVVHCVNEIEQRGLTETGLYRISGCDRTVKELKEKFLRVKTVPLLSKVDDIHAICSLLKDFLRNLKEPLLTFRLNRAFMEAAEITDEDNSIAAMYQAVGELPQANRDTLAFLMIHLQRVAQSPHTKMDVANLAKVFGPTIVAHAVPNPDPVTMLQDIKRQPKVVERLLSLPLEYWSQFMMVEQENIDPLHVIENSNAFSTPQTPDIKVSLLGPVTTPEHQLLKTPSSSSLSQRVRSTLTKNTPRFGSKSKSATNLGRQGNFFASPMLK

Caspase-3 = target: T5, Caspase-3 (Homo sapiens, UniProt P42574); type: functional;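 also: Dose-response selectivity test against caspase-3 for candidate inhibitors of sentrin-specific proteases (SENPs)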
T5 sequence (P42574 whole entry): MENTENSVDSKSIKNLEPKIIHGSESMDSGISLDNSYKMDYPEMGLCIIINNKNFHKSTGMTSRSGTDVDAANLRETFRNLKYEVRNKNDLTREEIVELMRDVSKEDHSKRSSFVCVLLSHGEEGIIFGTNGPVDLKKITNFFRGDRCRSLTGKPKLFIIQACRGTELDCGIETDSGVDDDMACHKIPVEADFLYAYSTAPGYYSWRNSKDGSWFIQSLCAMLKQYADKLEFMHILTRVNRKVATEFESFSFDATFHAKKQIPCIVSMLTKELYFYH

[16] = target: T6, Sentrin-specific protease 6 (Homo sapiens, UniProt Q9GZR1); type: functional;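 also: Luminescence-based dose-response confirmatory assay of SENP6 inhibition, following up an ultra-high-throughput screen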
T6 sequence (Q9GZR1 whole entry): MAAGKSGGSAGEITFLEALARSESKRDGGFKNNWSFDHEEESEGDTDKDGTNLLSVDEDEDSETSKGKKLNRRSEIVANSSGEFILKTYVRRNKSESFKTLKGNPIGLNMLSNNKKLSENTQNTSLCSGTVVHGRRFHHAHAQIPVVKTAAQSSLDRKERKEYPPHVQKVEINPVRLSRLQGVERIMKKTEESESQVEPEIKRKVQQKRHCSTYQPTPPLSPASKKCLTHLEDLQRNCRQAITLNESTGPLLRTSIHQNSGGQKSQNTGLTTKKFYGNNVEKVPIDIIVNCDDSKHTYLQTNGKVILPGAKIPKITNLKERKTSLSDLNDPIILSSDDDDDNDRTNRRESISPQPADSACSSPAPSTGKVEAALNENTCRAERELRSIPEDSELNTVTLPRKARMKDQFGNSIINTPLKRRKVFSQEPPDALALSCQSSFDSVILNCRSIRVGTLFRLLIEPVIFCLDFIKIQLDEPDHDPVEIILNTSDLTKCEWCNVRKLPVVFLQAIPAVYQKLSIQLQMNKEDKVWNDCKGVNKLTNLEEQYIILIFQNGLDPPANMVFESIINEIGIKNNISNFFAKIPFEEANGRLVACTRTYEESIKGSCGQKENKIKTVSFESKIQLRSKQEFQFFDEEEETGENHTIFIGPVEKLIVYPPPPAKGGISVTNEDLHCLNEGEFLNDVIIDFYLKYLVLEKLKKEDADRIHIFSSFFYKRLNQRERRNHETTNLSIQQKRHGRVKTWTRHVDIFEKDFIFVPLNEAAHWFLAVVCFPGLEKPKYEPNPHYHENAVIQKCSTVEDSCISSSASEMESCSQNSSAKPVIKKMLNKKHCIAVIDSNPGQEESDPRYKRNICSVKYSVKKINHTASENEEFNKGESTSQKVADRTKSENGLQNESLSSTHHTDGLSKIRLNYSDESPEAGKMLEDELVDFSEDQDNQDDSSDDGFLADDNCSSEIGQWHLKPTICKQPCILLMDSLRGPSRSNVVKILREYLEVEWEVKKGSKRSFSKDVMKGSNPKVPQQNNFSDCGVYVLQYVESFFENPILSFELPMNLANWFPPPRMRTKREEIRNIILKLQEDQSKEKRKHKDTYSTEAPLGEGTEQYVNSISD

[17] = target: T7, Sentrin-specific protease 8 (Homo sapiens, UniProt Q96LD8); type: functional;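 also: luminescence read-out of SENP8 inhibition, dose-response confirmation following an ultra-high-throughput screen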
T7 sequence (Q96LD8 whole entry): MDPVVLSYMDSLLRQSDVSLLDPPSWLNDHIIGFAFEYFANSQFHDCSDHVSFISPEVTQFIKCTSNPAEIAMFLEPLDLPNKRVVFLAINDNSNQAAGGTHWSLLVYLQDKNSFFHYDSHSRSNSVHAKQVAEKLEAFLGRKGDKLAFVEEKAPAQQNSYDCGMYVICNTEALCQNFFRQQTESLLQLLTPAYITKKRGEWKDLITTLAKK

[18] = target: T8, Sentrin-specific protease 7 (Homo sapiens, UniProt Q9BQF6); type: functional;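 also: Luminescence-based dose-response confirmation of ultra-high-throughput screening hits, measuring inhibition of SENP7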
T8 sequence (Q9BQF6 whole entry): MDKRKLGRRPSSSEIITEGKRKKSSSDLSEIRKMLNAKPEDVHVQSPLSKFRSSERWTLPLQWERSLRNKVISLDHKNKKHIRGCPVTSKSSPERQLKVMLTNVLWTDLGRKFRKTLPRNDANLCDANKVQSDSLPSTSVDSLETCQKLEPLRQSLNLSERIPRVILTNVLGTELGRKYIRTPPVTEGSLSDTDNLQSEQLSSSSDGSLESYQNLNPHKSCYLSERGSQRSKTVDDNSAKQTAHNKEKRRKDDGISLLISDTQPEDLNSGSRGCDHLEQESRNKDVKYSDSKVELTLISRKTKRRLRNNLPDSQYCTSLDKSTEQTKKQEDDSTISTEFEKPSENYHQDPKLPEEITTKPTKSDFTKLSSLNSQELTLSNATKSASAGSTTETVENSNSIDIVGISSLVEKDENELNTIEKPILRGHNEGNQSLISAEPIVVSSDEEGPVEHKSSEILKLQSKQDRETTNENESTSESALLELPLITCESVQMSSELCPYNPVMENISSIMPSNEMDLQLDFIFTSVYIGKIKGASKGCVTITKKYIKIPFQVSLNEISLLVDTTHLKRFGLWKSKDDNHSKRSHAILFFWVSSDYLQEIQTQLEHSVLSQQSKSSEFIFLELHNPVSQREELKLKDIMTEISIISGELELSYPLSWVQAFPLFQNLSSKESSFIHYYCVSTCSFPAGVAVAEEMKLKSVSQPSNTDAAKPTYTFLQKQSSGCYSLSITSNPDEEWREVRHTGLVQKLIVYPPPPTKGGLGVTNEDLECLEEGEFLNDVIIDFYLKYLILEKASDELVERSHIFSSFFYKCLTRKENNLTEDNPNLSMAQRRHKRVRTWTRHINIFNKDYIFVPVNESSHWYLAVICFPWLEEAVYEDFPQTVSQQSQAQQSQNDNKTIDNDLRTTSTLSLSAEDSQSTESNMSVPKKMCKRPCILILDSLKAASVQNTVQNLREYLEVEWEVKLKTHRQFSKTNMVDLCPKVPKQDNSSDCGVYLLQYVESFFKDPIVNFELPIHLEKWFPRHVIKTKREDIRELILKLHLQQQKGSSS

H9c2 = assay: cells; type: functional, cell-based; details: Rattus norvegicus, H9c2, Myocardium;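 also: confirmatory concentration-response retest of ultra-high-throughput screening hits for modulation of myocardial damage; cell death induced by hydrogen peroxide oxidative stress; compound pretreatment for 60 min then peroxide exposure for 2 h; potency is for protecting the cells against peroxide damage rather than for killing them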

Chain of Nonstructural protein 1 (Q194T2 whole entry): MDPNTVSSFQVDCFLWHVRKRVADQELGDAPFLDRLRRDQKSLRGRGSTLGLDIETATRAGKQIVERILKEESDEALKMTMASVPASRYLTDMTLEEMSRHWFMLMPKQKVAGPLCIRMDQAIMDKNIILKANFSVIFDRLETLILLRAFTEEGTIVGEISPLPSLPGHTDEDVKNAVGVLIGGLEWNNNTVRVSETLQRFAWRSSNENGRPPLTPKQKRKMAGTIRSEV
Chain of Beta-galactosidase (Q8VNN2 whole entry): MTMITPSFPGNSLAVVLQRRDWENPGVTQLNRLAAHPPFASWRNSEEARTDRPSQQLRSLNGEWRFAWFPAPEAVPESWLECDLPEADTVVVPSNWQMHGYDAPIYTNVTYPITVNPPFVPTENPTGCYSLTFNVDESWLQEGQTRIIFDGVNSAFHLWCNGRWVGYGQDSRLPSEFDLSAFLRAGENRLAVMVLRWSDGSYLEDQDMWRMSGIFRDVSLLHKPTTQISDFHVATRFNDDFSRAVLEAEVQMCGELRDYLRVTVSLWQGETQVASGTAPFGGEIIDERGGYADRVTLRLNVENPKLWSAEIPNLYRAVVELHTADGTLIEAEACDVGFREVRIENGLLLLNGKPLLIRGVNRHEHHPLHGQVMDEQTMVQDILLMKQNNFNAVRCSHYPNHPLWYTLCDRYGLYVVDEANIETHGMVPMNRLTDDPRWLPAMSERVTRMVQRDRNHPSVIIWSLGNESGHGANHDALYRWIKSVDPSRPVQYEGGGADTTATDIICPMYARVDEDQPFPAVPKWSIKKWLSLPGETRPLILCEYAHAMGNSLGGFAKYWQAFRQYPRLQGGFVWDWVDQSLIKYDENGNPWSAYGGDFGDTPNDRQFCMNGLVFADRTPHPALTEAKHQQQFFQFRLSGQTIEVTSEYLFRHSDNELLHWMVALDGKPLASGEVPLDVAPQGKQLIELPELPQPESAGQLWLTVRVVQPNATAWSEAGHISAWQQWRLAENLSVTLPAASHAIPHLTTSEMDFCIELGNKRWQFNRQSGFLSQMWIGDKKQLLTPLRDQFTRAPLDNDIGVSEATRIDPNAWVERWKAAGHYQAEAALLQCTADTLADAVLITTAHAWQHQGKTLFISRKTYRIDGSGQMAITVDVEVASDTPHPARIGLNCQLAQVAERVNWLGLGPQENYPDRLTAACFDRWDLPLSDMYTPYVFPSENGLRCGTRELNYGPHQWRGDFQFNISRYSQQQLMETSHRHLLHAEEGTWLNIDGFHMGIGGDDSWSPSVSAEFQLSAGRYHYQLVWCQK

CCN1C(=O)C(=Cc2cccc(OC)c2Oc2ccc([N+](=O)[O-])cc2[N+](=O)[O-])SC1=S
EC50 (BJ [1]): 3.45 µM (inconclusive) | EC50 (BJ [2]): 2.5 µM (inconclusive) | EC50 (Beta-galactosidase): > 40 µM (inactive) | EC50 [3]: 4.38 µM (active) | AC50 [4]: 7.11 µM (active) | IC50 [5]: > 40 µM (not active) | EC50 (BJ [6]): 3.5 µM (active) | AC50 [7]: 0.853 µM (active) | AC50 [8]: 1.89 µM (active) | IC50 (Vero [9]): > 6.25 µM (active) | AC50 [10]: 5.77 µM (active) | CC50 (Vero [11]): 3.96 µM (active) | EC50 (BJ [12]): 2.22 µM (active)

Oc1cc(Nc2ccncc2)cc2cccnc12
IC50 [13]: 8.54 µM (active) | IC50 (Nonstructural protein 1): 5.11 µM (active) | IC50 (Bcl-2-related protein A1): > 20 µM (inactive) | IC50 [14]: 6.9 µM (active)

Cn1cccc1/C=C1\SC(Nc2ccc(O)cc2)=NC1=O
EC50 (BJ [1]): 0.926 µM (inconclusive) | EC50 [3]: 0.362 µM (active) | IC50 [15]: 94.8 µM (active) | EC50 (BJ [6]): 0.357 µM (inconclusive) | EC50 (BJ [12]): < 0.104 µM (active)

COc1cccc(NC(=O)C(S)=NC2CCCCC2)c1
IC50 (Caspase-3): 17.9 µM (active) | IC50 [16]: 20.8 µM (active) | IC50 [17]: 23 µM (active) | IC50 [18]: 5.39 µM (active)

COC(=O)c1ccc(N=Nc2ccccc2)cc1
IC50 (Caspase-3): 11.6 µM (active) | IC50 [16]: 13.2 µM (active) | IC50 [17]: 20.2 µM (active) | IC50 [18]: 5.11 µM (active)

CCOC(=O)C1=C(COC(=O)c2cc(OC)c(OC)c(OC)c2)NC(=O)NC1C (stereo not drawn)
IC50 (H9c2): 11.2 µM (active) | IC50 [13]: 6.85 µM (active) | IC50 (Bcl-2-related protein A1): > 20 µM (inactive) | IC50 [14]: 8.55 µM (active)

COc1ccccc1NC(=O)CCSc1ccc(C)cc1
IC50 (Caspase-3): 18.1 µM (active) | IC50 [16]: 34.9 µM (active) | IC50 [17]: 37 µM (active) | IC50 [18]: 11.2 µM (active)
